Assay results reported in patent publication US9346957B2, “Cell permeable, fluorescent dye” (École Polytechnique Fédérale de Lausanne (EPFL), priority 2011, dated 2016).

Key:
SNAP-tag fusion proteins = assay: Live cell labeling of SNAP-tag fusion proteins, fluorescence imaging; type: cell-based; conditions: living mammalian cells, incubation with dye
Protocol: (§1) As a representative example for the labeling of a SNAP-tag fusion with BG-Sir650, the labeling and fluorescence imaging of SNAP-Cep41 (microtubule binding protein) fusion protein in U2OS cells is described. SNAP-Cep41 was expressed from episomal pEBTet plasmid encoding puromycin resistance under a doxycycline inducible promoter in U2OS cells. Prior to induction of expression, cells were selected by growing them in complete Dulbecco's Modified Eagle's Medium (DMEM) with 1 μg/ml puromycin for at least 1.5 weeks. SNAP-Cep41 fusion protein expression was induced for 48 h by adding to complete DMEM grow medium doxycycline at final concentration of 0.1 μg/ml before staining procedure. Living cells were stained by replacing old media with complete DMEM growth media containing 5 μM BG-SiR650, and incubated for 30 min at 37° C. in 5% CO2 incubator. Cells were washed two times with Hank's Buffered Salt Solution (HBSS) for 5 min and once with media for 1 h. Before imaging, growth media was replaced with HBSS. Images (FIG. 2A) were acquired on a confocal fluorescence microscope as z-stacks and presented as maximum intensity projections. For the imaging of fixed cells, living cells were labeled with 1 μM BG-Sir650 for 30 min at 37° C. […] Images (FIG. 2B) were acquired on a confocal fluorescence microscope as z-stack and presented as maximum intensity projections. […]

mammalian cells = assay: Membrane permeability, shown by incubating cells with the dye and fluorescence imaging; type: cell-based; conditions: simple incubation with the dye
Protocol: as §1

For CN(C)c1ccc2c(c1)[Si](C)(C)C1=CC(=[N+](C)C)C=CC1=C2c1cc(C(=O)NCc2ccc(COc3nc(N)nc4[nH]cnc34)cc2)ccc1C(=O)[O-] [SiR650-6BG], the “specific labeling of SNAP-tag fusion proteins in living cells” value (SNAP-tag fusion proteins) was “permits the specific labeling of SNAP-tag fusion proteins” and the membrane permeability (mammalian cells) was “excellent membrane permeability”.
